Measured values published in patent US20210246140A1, “MODULATORS OF METABOTROPIC GLUTAMATE RECEPTOR 2” (The General Hospital Corporation, priority 2020, published 2021).
pEC50: −log10 of the molar value.

Columns and labels:
Determination of Log P = type: physicochemical; details: experimental lipophilicity
Experimental: Determination of Log P The Log P was determined using a reversed-phase HPLC method. First, seven reference compounds were examined to obtain the linear regression of the log P against the log of capacity factors by the expression: log Pow=a+b*log k. The Log P of these reference compounds was already been determined. The capacity factor k was calculated by the expression: k=(tR−t0)/t0. The retention time tR of test compound was determined on the HPLC (Agilent 1260 infinity II LC System, XTerra™ MS Cis 5μ 2.1×250 mm, methanol/water=75/25, 0.25 mL/min). The dead-time to was measured by using thiourea. The linear regression equation of the Log P against the log of capacity factors was generated in Excel: log Pow=3.049+2.429*log k, where R^2 was 0.9964. The retention time of compound 1, 2, and 7 was also determined on the HPLC under the same condition and each test was repeated three times (FIG. 5).
The experimental lipophilicity was measured by using liquid-liquid partition between n-octanol and water (“shake-flask method”) [see ref. 54]. […] The plasma protein binding comprises compounds' binding to albumin, α1-acid glycoprotein and lipoproteins once delivered to the bloodstream. This property was evaluated for compounds 1 and 2 by equilibrium dialysis [see ref. 56], where two chambers were separated by a dialysis membrane (MWCO 8 kD). The plasma protein bindings of 1 and 2 are 87.2% and 88.7%, respectively (see FIGS. 20 and 6). Therefore, the high plasma free fraction of compounds 1 and 2 (>10%) would allow enough free drug concentration in blood stream to reach the brain targets.

[1] = Plasma stability in rat serum; type: in vitro ADME; details: 37° C., diltiazem as positive control
Experimental: Compound stability in rat serum was examined using a published method. [See ref. 57] Rat serum (100 μL, Abeam, Inc, No. ab7488) and test compound or control compound (2.5 μL, 1 mM in DMSO) was added to the individual tube. The tube was vortexed and incubated at 37° C. During the incubation, aliquots of 50 μL samples were quenched with ice-cold acetonitrile at 0, 15, 30, 60, and 120 min time points, respectively. After mixing, the quenched samples were centrifuged, and the supernatant was withdrawn for analysis by HPLC (Agilent 1260 infinity II LC System, XTerra™ MS C18, 5μ, 2.1×250 mm, 20 mM ammonium formate (A)/acetonitrile (B), 0.25 mL/min, gradient of 5% to 100% B). The samples were assayed at least three times. Compound 1-OH was used as internal standard while diltiazem was used as a positive control. The percentage remaining was calculated by (peak area at the specific time point)/(peak area at 0 min)×100% (FIG. 7).
(§1) The in vitro plasma and liver microsomal stability of 1 and 2 were studied by incubating the test compounds in rat serum and rat liver microsomes as well as NADPH cofactor, respectively, using previously published methods [see refs. 57, 58]. […] The solution stability of 1 was evaluated with buffer solutions at pH 5.0, 7.4 and 9.4, respectively (FIGS. 10 and 20) [see refs. 61].

[2] = Microsomal stability in rat liver microsomes; type: in vitro ADME
Experimental: Compound stability in rat liver microsomal was tested using a published method. [see refs. 57, 58] In a vial 1.5 μL of test compound (1 mM in DMSO stock solution) was mixed with 432 μL of PBS (50 mM, pH 7.4). The mixture was kept at 37° C. for 10 min before adding 13 μL of Sprague-Dawley rat liver microsomes (Sigma-Aldrich, No. M9066). The vial was vortexed and shaken at 37° C. for 5 min, followed by addition of 50 μL of NADPH (10 mM in PBS stock solution) to start the reaction. The mixture was incubated at 37° C. for 0, 5, 15, 30, 45 min, respectively, and quenched by addition of 250 μL of ice-cold acetonitrile and 3 μL of the internal standard (0.5 mM in DMSO). The quenched solutions were centrifuged at 10,000 g for 15 min. The supernatant was collected and quantitated by RP-HPLC (Phenomenex Luna® column 5 μC18, 100 Å, 250×4.6 mm; 0.7 mL/min, 15 min, Acetonitrile/water/0.1% FA). The procedure was repeated three times for each compound. Compound 1-OH was used as internal standard and compound ML128 served as positive control. The percentage of remaining intact test-compound was calculated by (peak area at the specific time point)/(peak area at 0 min)×100%. Each procedure was repeated three times (FIGS. 8 and 9). For FIG. 8, the natural logarithm (In) of peak area ratio (test compound peak area/internal standard peak area) was plotted against time and the gradient of the line was determined. Subsequently, the half-life (t1/2) min was calculated as 0.693/k, where the elimination rate constant (k) equals to negative gradient. V (μL/mg) was obtained as a ratio of volume of incubation (μL)/protein in the incubation (mg). Finally, the intrinsic clearance (CLint) (μL/min/mg protein) was calculated as V×0.693/t1/2.
as §1

mGluR2 = target: T1, mGluR2 (Homo sapiens, UniProt Q14416); details: calcium flux, Gα15 or Gα16 forced coupling; read-out: previously reported mGluR2 EC50; cited from earlier work
T1 construct: expressed in transfected cells
T1 sequence (Q14416 19-872): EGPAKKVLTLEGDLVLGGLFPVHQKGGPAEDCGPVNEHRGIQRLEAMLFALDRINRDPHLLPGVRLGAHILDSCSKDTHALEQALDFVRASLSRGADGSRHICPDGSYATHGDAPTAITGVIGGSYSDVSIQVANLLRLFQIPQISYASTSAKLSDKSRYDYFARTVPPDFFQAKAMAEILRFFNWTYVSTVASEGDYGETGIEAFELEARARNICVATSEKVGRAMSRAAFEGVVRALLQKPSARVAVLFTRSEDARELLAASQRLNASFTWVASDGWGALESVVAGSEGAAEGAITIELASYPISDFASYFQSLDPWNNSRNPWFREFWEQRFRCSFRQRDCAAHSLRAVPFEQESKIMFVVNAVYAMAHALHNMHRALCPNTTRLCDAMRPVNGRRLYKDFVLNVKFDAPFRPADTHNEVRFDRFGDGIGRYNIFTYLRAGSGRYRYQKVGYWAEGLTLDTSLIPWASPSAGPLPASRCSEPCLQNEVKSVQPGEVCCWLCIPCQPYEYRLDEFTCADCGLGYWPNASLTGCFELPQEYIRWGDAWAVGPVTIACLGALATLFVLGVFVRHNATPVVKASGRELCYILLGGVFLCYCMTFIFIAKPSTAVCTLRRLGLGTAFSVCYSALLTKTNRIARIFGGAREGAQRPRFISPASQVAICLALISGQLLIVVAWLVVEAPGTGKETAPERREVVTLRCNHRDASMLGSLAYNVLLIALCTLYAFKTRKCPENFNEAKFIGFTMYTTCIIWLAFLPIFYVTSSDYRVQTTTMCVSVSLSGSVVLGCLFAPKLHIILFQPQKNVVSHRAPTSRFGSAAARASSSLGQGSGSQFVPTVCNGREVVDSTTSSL

[3] = PAMPA-BBB (parallel artificial membrane permeation assay); details: pH 7.4, 18 h

For `COc1cc(C(F)(F)F)ccc1C1CCN(Cc2nc3ncccc3n2C)CC1` [Compound 1], the “Log P” value (Determination of Log P) was 3.65, the “stability in rat plasma” value [1] was “much more stable than diltiazem” and the microsomal CLint at 3 µM ([2]; Sprague-Dawley, pH 7.4, rat liver microsomes, read-out: intrinsic clearance CLint) was 17.9 µL/min/mg. For the same compound, the “microsomal stability” value ([2]; rat liver microsomes with NADPH, ML128 as positive control) was “reasonable microsomal stability”, the pEC50 (mGluR2) was 7.89 and the “effective permeability Pe” value [3] was 9.2 ×10⁻⁶ cm/s.
